Assay results taken from patent US20150198612A1, “Isotopic Labelling of Proteins” (UNIVERSITY OF DUNDEE, priority 2012, published 2015).

Legend:
[1] = tested on: drug metabolism enzymes; conditions: mouse, in vivo
[2] = tested on: drug metabolism related proteins; test: LC-MS/MS protein expression profile of liver from induced mice (Example 1); type: in vivo; conditions: wild type mice liver; once daily i.p. for 3 days; TCPOBOP 1 mg/kg; versus corn oil; FIG. 3
Method: In order to generate a drug metabolism-enhanced SILAC model, the protein expression profiles of liver from animals induced with TCPOBOP (1 mg/kg) or pregnenolone 16α-carbonitrile (PCN) or vehicle were examined. […] Animals were sacrificed 3 days after dosing, liver tissue excised and snap-frozen in liquid nitrogen for storage at −80° C.
Frozen liver tissue was thawed by addition of 10 volumes SDT lysis buffer (4% SDS, 0.1M DTT, 100 mM Tris-HCl pH 7.6) then homogenised by rotor-stator (2×5 sec at 20 k revolutions). Homogenate was heated to 95° C. for 5 minutes, sonicated (2×5 sec), then centrifuged at 16,000×g for 10 minutes. Supernatant (protein sample for analysis) was removed, aliquoted and stored at −80° C. until use. Protein samples (total of 30 μg/well) were electrophoresed through a 12% bis-tris gel in MOPS running buffer supplemented with antioxidant (all Life Technologies, Paisley, UK) alongside a Spectra multicolour broad range protein ladder (Thermo Fisher Scientific, Waltham, Mass.). Gels were stained with coomassie blue, destained, and then rehydrated with Milli-Q water. […] Peptide sample concentration was determined by Nanodrop (Thermo Fisher Scientific) and adjusted to 0.2 mg/mL in water containing 0.1% (vol/vol) trifluoroacetic acid. […] Data were analysed using SIEVE software in conjunction with Mascot database search engine. […]

[3] = tested on: Cyp3a; conditions: mouse, in vivo, ip
[4] = tested on: Cyp2B10; test: SILAM LC-MS/MS quantification of Cyp2B10 in mouse liver (Example 2); conditions: for L/H ratio of Cyp2B10 peptide NLQELLDYIGHSVEK: mice treated 1 mg/kg
Method: This experiment was conducted to test the utility of the drug metabolism-enhanced reference in an actual SILAM protocol in comparison to normal SILAM protocol.
Liver protein extracts from wild type mice treated with TCPOBOP (1 mg/kg) or Ethoxyquin (1 mg/kg) or corn oil (control) were spiked with liver heavy protein extract from normal SILAM mice or drug metabolism pathway-enhanced SILAM mice according to the present invention.

[5] = tested on: Cyp4a; test: Western blot of liver drug metabolism enzymes, Cyp4a; conditions: C57BL/6 mice liver, once daily i.p. for 3 days, single inducer
[6] = tested on: inflammation related proteins; test: LC-MS/MS of lung proteins after LPS treatment (Example 3); type: in vivo; conditions: male C57BL/6 mice, single i.p. injection 100 μg, lung 24 hours after dosing
Method: Male C57BL/6 mice were given a single intraperitoneal injection of lipopolysaccharide (LPS; 100 μg) or vehicle and tissues were harvested 24 hours after dosing. Lung tissues were lysed in 2% SDS buffer by ultrasonic probe and proteins extracted were resolved onto a SDS-PAGE, followed by a filter assisted trypsin digestion procedure. The protein digests were analysed by LC-MS/MS and the data were analysed using Peaks software for database search and Progenesis for quantification.

Row | Molecule | change to other Cyp proteins examined (other than Cyp3a) ([1]; ip) | expression of drug metabolism related proteins relative to the total ion current [2] | Cyp3a protein expression [3] | expression of proteins examined [1] | Cyp2B10 expression relative to Ethoxyquin ([4]; from L/H ratios, pathway-enhanced SILAM) | levels of the low-abundance cytochrome protein Cyp2B10 ([4]; general statement) | L/H ratio of Cyp2B10 peptide NLQELLDYIGHSVEK ([4]; liver extract spiked with drug metabolism pathway-enhanced SILAM heavy liver extract, control L/H=0) | L/H ratio of Cyp2B10 peptide NLQELLDYIGHSVEK ([4]; liver extract spiked with normal SILAM heavy extract (no heavy peptide signal)) | Cyp4a expression [5] | number of inflammation related proteins in the lung that can be quantified using the enhanced SILAM [6] | induction of the lung proteins listed in Table 4 ([6]; versus vehicle)
1 | CC(=O)[C@H]1[C@H](C#N)C[C@H]2[C@@H]3CC=C4C[C@@H](O)CC[C@]4(C)[C@H]3CC[C@@]21C [PCN, pregnenolone 16α-carbonitrile] | no change | to a lesser extent, PCN, significantly increased the expression of many of these proteins | noticeable |  |  |  |  |  |  |  | 
2 | Clc1cnc(Oc2ccc(Oc3ncc(Cl)cc3Cl)cc2)c(Cl)c1 [TCPOBOP] |  | significantly increased the expression of many of these proteins |  | enhanced significantly the expression of many proteins examined except for Cyp2e and Homx1 | 4 fold | efficiently increase levels | 2.50 | infinite | moderate |  | 
3 | lipopolysaccharide [LPS] |  |  |  |  |  |  |  |  |  | more than 100 | more than 5 times
